The test system of this experiment is Legionella pneumophila strains. The experiment is classed as cell-based. To be noted: for optimal dose: dose giving best improvement in latency and/or growth rate.
Setting [1] is: doses of between 10^−6 to 10^−2 mM, especially 10^−4 mM, numerous strains.
The mark [2] stands for this setting: supplemented medium vs reference medium (YEC), doses between 0.01 and 5% weight of compound on volume of sample, variety of strains.

SMILES strings stand for the structures. Like-named read-outs stand apart in the source and are kept apart here.

Regarding `[Ca+2].[Cl-].[Cl-]` [calcium chloride], the “latency and/or growth rate” value under setting [1] is on record as “Improvements in latency and/or growth rate”.

Consider `[Cl-].[Cl-].[Mg+2]` [magnesium chloride], for which the “latency and/or growth rate” value under setting [1] is on record as “Improvements in latency and/or growth rate”.

Regarding `[Cl-].[K+]` [potassium chloride], the “latency and/or growth rate” value (doses of between 1 to 10^−4 mM, especially around 10^−2 mM, a number of strains) is listed as “Improvements in latency and/or growth rate”.

`N[C@@H](CO)C(=O)O` [serine]: the optimal dose result was “around 1 g per litre”. Moreover, the “latency and/or growth rate” value under setting [2] was “improvements in latency and/or growth rate”.

As to `C[C@@H](O)[C@H](N)C(=O)O` [threonine], the optimal dose entry was “around 1 g per litre”. Further, under setting [2], the “latency and/or growth rate” value is reported as “improvements in latency and/or growth rate”.

Source of the values: patent US9057093B2 (priority 2010, dated 2015).
